# Assay results reported in patent US20050026833A1, “PSP-94: use for treatment of hypercalcemia and bone metastasis” (priority 2001, published 2005).
# Entries after “also recorded” stand apart in the source; their conditions may differ.
# How the values were obtained:
# [1] = system: Mat Ly Lu-PTHrP skeletal metastasis; assay: I.C. inoculation skeletal metastasis model, hind limb paralysis; format: in vivo, male Copenhagen rats
# Procedure: Animal Protocols. Inbred male Copenhagen rats weighing 200-250g were obtained from Harlan Sprague-Dawley (Indianapolis, Ind.). Before inoculation, Mat Ly Lu-PTHrP tumor cells growing in serum-containing medium were washed with Hanks buffer, trypsinized, and collected by centrifugation at 1500 rpm for 5 min. […] Animals were divided into control groups which received vehicle alone (PBS: phosphate buffered saline) and experimental groups which were infused I.P. with different doses (0.1-10.0 ug/kg/day) of PSP-94 starting at the time of tumor cell inoculation (day 0) until the day of skeletal metastasis development. The time after tumor cell inoculation which was required to develop hind limb paralysis (an index of spinal cord compression due to lumbar vertebrae metastasis) was determined and percentage of starting number of animals developing hind-limb paralysis was plotted.
# Alternatively, cell pellets (10×10^3 cells) were resuspended in 100ul saline and injected using 1 ml syringes into the left ventricle of rats anaesthetised with ketamine/xylazine cocktail. […] The time after tumor cell inoculation which was required to develop hind limb paralysis (an index of spinal cord compression due to lumbar vertebrae metastasis) was determined and percentage of starting number of animals developing hind-limb paralysis was plotted. In other sets of experiments, following I.C. tumor cell inoculation, control animals receiving PBS and experimental animals receiving 100.0 ug/kg/day of PCK3145 were sacrificed before the development of hind-limb paralysis (day 10 post tumor cell inoculation) and their vertebral column spanning from L1-L5 was removed and subjected to bone histomorphometric and immunohistochemical analysis as described herein.
# Thus, male Copenhagen rats were inoculated via I.C. route into the left ventricle with 10×10^3 Mat Ly Lu-PTHrP cells. Starting on the time of tumor cell inoculation (day 0) animals were infused with different doses of PSP-94 (0.1-10.0 ug/kg/day) until the day of development of hind-limb paralysis as described herein. Animals receiving vehicle alone as control (CTL) or PSP-94 were monitored daily for the development of hind-limb paralysis and % animals not paralyzed at different time points in each group was calculated.
# Male Copenhagen rats were inoculated with Mat Ly L u-PTHrP cells (10×10^3) into the left ventricle via I.C. injections. Starting on the day of tumor cell inoculation (day 0), experimental animals received different doses of PCK3145 (1.0-100.0 ug/kg/day) via I.P. route. To evaluate the effect of PCK3145 on delaying the development of experimental skeletal metastasis, animals were evaluated daily by monitoring of the animals for the development of hind-limb paralysis. […]
# [2] = system: Mat Ly Lu-PTHrP skeletal metastasis; assay: Bone histomorphometry of vertebrae (tumor volume to bone volume); format: in vivo, male Copenhagen rats
# Procedure: Alternatively, cell pellets (10×10^3 cells) were resuspended in 100ul saline and injected using 1 ml syringes into the left ventricle of rats anaesthetised with ketamine/xylazine cocktail. […] The time after tumor cell inoculation which was required to develop hind limb paralysis (an index of spinal cord compression due to lumbar vertebrae metastasis) was determined and percentage of starting number of animals developing hind-limb paralysis was plotted. […]
# Computer-Assisted Image Analysis. Computer-assisted image analysis was carried out to quantify PTHrP immunostaining and determination of % TV/BV in the vertebral sections. […] The threshold was set by determining the positive staining of control sections and was used to automatically analyze all recorded images of all samples that were stained in the same session under identical conditions. The area of stained regions was calculated automatically by the software in each microscopic field. Pixel counts of the immunoreaction product were calculated automatically and were given as total density of the integrated immunostaining over a given area. […]
# [3] = system: Mat Ly Lu-PTHrP cells; assay: Cell morphology of treated Mat Ly Lu-PTHrP cells; format: cell-based, rat
# Procedure: Cell morphology. Morphological analysis of control and experimental Mat Ly Lu-PTHrP cells treated with PSP-94 or PCK3145 was carried out by plating 5×10^4 cells/ well in 6-well plates (Falcon Plastics, Oxnard, Calif.) in the presence of 10% FBS.
# Mat Ly Lu cells transfected with vector alone (CMV) or vector expressing PTHrP were seeded at a density of 5×10^3 cells/well in 6-well plates. Mat Ly Lu-PTHrP cells were treated with PSP-94 and were trypsinized and counted using a coulter counter as described herein. Change in cell number following treatment with 10.0 ug/ml of PSP-94 for 72 hrs is illustrated in FIG. 1.
# Mat Ly Lu-PTHrP cells were seeded at a density of 5×10^3 cells/well in 6-well plates and treated with different doses (1.0-100.0 ug/ml) of PCK3145 for up to 5 days and were trypsinized and counted using a coulter counter as described herein.
# [4] = system: Mat Ly Lu-PTHrP cells; assay: DNA fragmentation in vitro (agarose gel); format: cell-based, rat; settings: PSP-94 10.0 ug/ml, after 72 hours of treatment
# Procedure: In order to investigate the underlying molecular mechanism of action of PSP-94 in reducing tumor growth Mat Ly Lu-PTHrP cells were cultured in the presence of PSP-94 (10.0 ug/ml) or vehicle alone for different time intervals. Genomic DNA was collected from cells cultured in the presence of vehicle alone or PSP-94. Briefly, for DNA fragmentation, Mat Ly Lu-PTHRP cells were plated in 6 well plates (Falcon Plastics, Oxnard, Calif.). Cells were treated with PSP-94 (10.0 ug/ml) for up to 72 hours. DNA from treated cells incubated with PSP-94 and cells treated with vehicle alone was collected using a Phenol:Choloroform:lsoamyl alcohol solution (50:48:2). Equal amounts of DNA were subjected to gel electrophoresis on a 2% agarose gel. DNA fragmentation was visualised by UV light using a transilluminator. More particularly, results presented in FIG. 14A show Mat Ly Lu-PTHrP cells cultured in the presence of vehicle alone or PSP-94 (10.0 ug/ml) for up to […]. DNA was isolated and run in an agarose gel, as described above.
Molecule,"number of animals developing hind limb paralysis ([1]; 100.0 ug/kg/day PCK3145 I.P. from day 0, vs vehicle)",time of developing hind limb paralysis ([1]; 1.0 and 10.0 ug/kg/day PCK3145 I.P. (data not shown)),"ratio of tumor volume to bone volume (TV/BV) ([2]; 100.0 ug/kg PCK3145, day 10 post inoculation, vs vehicle)","trabecular and cortical bone destruction with compression of the spinal cord ([2]; 100.0 ug/kg/day PCK3145, day 10, vs vehicle)",cell morphology ([3]; 100.0 ug/ml PCK3145 (data not shown)),"number of animals developing hind limb paralysis (delay in skeletal metastasis) ([1]; 10.0 ug/kg/day PSP-94 from day 0, vs vehicle)",time of hind limb paralysis ([1]; 0.1 and 1.0 ug/kg/day PSP-94 (data not shown)),DNA fragmentation [4],tumor cell morphology ([3]; 10.0 ug/ml PSP-94 for 3 days (data not shown))
E W Q T D N C E T C T C Y E T (EWQTDNCETCTCYET; PCK3145 (polypeptide 31-45)),statistically significant delay,no significant effect,significant decrease,significantly less,changed their morphology from a more spindle-like appearance to a more circular and condensed shape,,,,
PSP-94: prostate secretory protein of 94 amino acids; native human seminal plasma PSP-94 (protein) SCYFIPNEGVPGDSTRKCMDLKGNKHPINSEWQTDNCETCTCYETEISCCTLVSTPVGYDKDNCQRIFKKEDCKYIVVEKKDPKKTCSVSEWII,,,,,,statistically significant delay; also recorded: modest (but measurable) delay,no significant effect,marked DNA fragmentation,noticeable change in tumor cell morphology
